Measured values taken from paper PMC3653934, “Identification of Adiponectin Receptor Agonist Utilizing a Fluorescence Polarization Based High Throughput Assay” (PLoS ONE, 2013).
Where two headings read alike, the source gives them in different places. Where a SMILES comes first, the peptide text is derived from it. [ ]: non-standard residue; d: D form. Nva = CCC[C@H](N)C(=O)O

B1: g-Ad: recombinant carboxyl-terminal globular domain of adiponectin with C-terminal His-tag, produced in BL21(DE3) cells; positive control (protein)
chain: GEGAYVYRSAFSVGLETYVTIPNMPIRFTKIFYNQQNHYDGSTGKFHCNIPGLYYFAYHITVYMKDVKVSLFKKDKAMLFTYDQYQENNVDQASGSVLLHLEVGDQVWLQVYGEGERNGLYADNDNDSTFTGFLLYHDTN
modifications: C-terminal His-tag left out

Columns and labels:
[1] = system: AMPK phosphorylation (AdipoR1 signaling) in MDA-MB-231 cells; test: Western blot of AMPK phosphorylation in MDA-MB-231 cells; type: cell-based, human; conditions: MDA-MB-231 cells treated at IC50 concentration for 6 h
Description: (§1) Cells were grown to 80% confluence, harvested and aliquoted into 100 mm dishes in serum free media. Cells were allowed to attach overnight and then the serum free media was removed and then cells were washed in PBS twice. Different doses of compounds were prepared in the normal media and added to different dishes for an additional 6 h. Cells were washed 3 times with ice-cold PBS and cell lysates were prepared by scraping cells into lysis buffer A (RIPA buffer, 2 mM dithiothreitol […], 1×Halt protease inhibitor cocktail (Thermo scientific), and 1×Halt phosphatase inhibitor cocktail (Thermo scientific)). The cells were allowed to swell on ice (5 min), after which the homogenate was centrifuged. The supernatants were transferred to fresh tubes and protein concentrations were determined using the Bio-Rad protein assay (Bio-Rad Laboratories, Inc.) per manufacturer’s instructions. Aliquots of the cell lysates were stored at −80°C.
(§2) Equal amounts of total protein (50 µg) were subjected to electrophoresis (10% tris-HCl, 1.0 mm gels) and transferred to nitrocellulose membranes. Membranes were blocked in TBS containing 0.05% Tween 20 (TBST) and 5% nonfat milk or 5% BSA for 1 hour at room temperature. Appropriately diluted primary antibodies were incubated in TBST/5% nonfat milk or TBST/5% BSA for 2 h at room temperature or overnight at 4 °C. Membranes were washed in TBST three times for 15 min each. Appropriately diluted secondary antibodies were incubated in superblock blocking buffers (Thermo Scientific) for 1 h at room temperature. Membranes were washed in TBST three times for 15 min. Proteins were detected by Amersham™ ECL plus western blotting detection system (GE healthcare). The following antibodies were used: anti-AdipoR1 M18, anti-AdipoR2 C12 (Santa Cruz Biotechnology, Santa Cruz, CA), anti-p-AMPKα(T172), anti-AMPKα, and anti-β-actin (Cell Signaling, Danvers, MA).
(§3) It is well established that adiponectin activates AMPK and p38 MAPK through AdipoR1 or PPARα through AdipoR2 to mediate its downstream signaling cascades, [9], [12], [14]. […] The levels of phosphorylation of AMPK and phosphorylation of PPARα were examined and the relative expression levels of the phospho-protein to the total expression of protein levels were quantified using ImageJ software (NIH) ( Fig. 3 ).
(§4) Figure 3 Effects of hit compounds on adiponectin receptor signaling pathways. […] A total 50 µg of cell lysate was loaded to each lane. Western blot was performed follow the protocol in materials and methods section.

[2] = biological target: T1, AdipoR1 (Homo sapiens, UniProt Q96A54); test: Competitive FP assay, displacement of probe 1 from AdipoR1; type: binding
T1 construct: The cDNAs encoding full-length of AdipoR1 or AdipoR2 were then sub-cloned into the mammalian expression vector pBEX and pcDNA3.1–Myc-His(+); His (C); Myc (C); made in house; host or cells: CHO cells
T1 sequence (Q96A54 1-375): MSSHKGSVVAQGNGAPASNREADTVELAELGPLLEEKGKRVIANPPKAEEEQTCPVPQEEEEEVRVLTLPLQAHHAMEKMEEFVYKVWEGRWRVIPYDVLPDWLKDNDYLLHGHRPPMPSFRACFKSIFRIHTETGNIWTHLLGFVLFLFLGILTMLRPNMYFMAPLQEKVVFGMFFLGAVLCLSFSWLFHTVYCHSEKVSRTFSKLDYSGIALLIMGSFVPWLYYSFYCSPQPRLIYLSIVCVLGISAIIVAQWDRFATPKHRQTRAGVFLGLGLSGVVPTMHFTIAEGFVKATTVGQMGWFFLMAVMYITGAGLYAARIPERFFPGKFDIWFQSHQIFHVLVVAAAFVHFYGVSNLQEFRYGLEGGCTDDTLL
Description: (§5) Unlabeled short peptide 3 was titrated against the FITC-labeled peptide and adiponectin receptor mixture. Plates were incubated at room temperature for up to 3 hours or 30 min at different temperatures. FP values were taken and IC50 values were calculated.
(§6) Master mixtures containing fluorescein-labeled probe 1 and adiponectin receptor (AdipoR1 or AdiopR2, 2 µM and probe 1 at 100 nM) in a reaction volume of 19 µl were prepared and loaded to plates. The library compounds (10 µM –0.078 µM, half dilutions) were prepared separately and transferred into the assay plates. The first and last columns of each plate were used as positive and negative control wells. Wells containing the drug only were used as controls to detect auto-fluorescence of the compounds in the total fluorescence assay. After subtraction of the background signal, data was processed and the IC50 values were determined by non-linear least square fitting using SigmaPlot 11.0.
(§7) Given that the present study is a screening study, peptide 3 was chosen as the positive control for cost-efficiency purposes.
(§8) To optimize the FP assay properly, it was necessary to assess the stability of the FP assay. The conditions for the FP assay were established by testing various parameters including incubation temperature, time, TF values, ΔmP values, and DMSO tolerance. […] In summary, the competitive FP binding assay conditions ideal for identifying adiponectin receptor agonists are: i) 2 µM adiponectin receptor, ii) 100 nM probe 1, iii) 5% final DMSO concentration (v/v), and iv) incubation for 30 min at 25°C before reading the plate.
(§9) A pilot screen against the natural product library of 10,000 compounds described above was performed at screening concentrations of 10 µM to 0.078 µM (half serial dilutions) in 5% DMSO (v/v). Controls present in each assay plate consisted of 5% DMSO (negative control) or peptide 3 (positive control).
(§10) We screened a library of 10,000 natural compounds for adiponectin agonists. […] 46 compounds that could generate IC50 curves were identified as initial hits.

[3] = system: MDA-MB-231 cells; test: Cell viability assay (CellTiter-Blue) in MDA-MB-231 cells; type: cell-based; conditions: Homo sapiens, read-out: IC50 (µM) MDA-MB-231 cells, cell viability
Description: (§11) All cell lines were obtained from the American Type Culture Collection (ATCC). MCF-7 and MDA-MB-231 cells were maintained in DMEM containing 10% fetal bovine serum and supplied with 1% penicillin/streptomycin. All cells were maintained in a 5% CO2 atmosphere at 37°C.
(§12) The effects of the lead compounds on cell proliferation were tested in MCF-7 and MDA-MB-231 cells. Cells were grown to 80% confluence, harvested and aliquoted into 384-well plates in a total volume of 45 µl per well. The outer wells were inoculated with sterile water to minimize evaporation from the sample wells. Cells were allowed to attach overnight and 5 µl culture media containing either vehicles or drug were added. Cell proliferation was evaluated using CellTilter-Blue reagent (Promega, China) according to manufacturer’s instructions after 72-h incubation. Fluorescence was measured with an excitation at 530 nm and emission at 590 nm. After background subtraction, cell viability values were normalized to vehicle controls and expressed as percentage of the mean of the relative vehicle controls.
(§13) To further confirm the agonistic activity of hit compounds, MDA-MB-231 and MCF-7 cells were treated with different concentrations of g-Ad or drug (20 µM to 1.2 nM) for 72 hours and cell viability was measured. Thus, four compounds (arctiin, (-)-arctigenin, matairesinol and gramine) that show agonistic activity against adiponectin receptor 1 and four compounds (deoxyschizandrin, taxifoliol, syringing and parthenolide) that show agonistic activity against adiponectin receptor 2 were identified.

[4] = system: MCF-7 cells; test: Cell viability assay (CellTiter-Blue) in MCF-7 cells; type: cell-based; conditions: Homo sapiens, read-out: IC50 (µM) MCF-7 cells, cell viability
Description: as §11, §12, §13

[5] = biological target: T2, AdipoR2 (UniProt Q86V24); test: Competitive FP assay, displacement of probe 1 from AdipoR2; type: binding, human
T2 sequence (Q86V24 1-386): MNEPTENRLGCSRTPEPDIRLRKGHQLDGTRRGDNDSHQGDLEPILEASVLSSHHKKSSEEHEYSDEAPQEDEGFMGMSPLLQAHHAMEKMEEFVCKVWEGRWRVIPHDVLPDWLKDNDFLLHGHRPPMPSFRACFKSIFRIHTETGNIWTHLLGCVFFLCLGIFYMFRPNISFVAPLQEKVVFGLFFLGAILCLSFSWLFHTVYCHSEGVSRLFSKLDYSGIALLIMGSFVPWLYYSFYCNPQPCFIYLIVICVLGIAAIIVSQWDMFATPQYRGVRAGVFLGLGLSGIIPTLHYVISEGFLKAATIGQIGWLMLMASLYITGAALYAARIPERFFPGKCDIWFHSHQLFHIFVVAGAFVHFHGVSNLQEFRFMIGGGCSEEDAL
Description: as §5, §6, §7, §8, §9, §10

[6] = system: PPARα phosphorylation (AdipoR2 signaling) in MCF-7 cells; test: Western blot of PPARα phosphorylation in MCF-7 cells; type: cell-based, human; conditions: MCF-7 cells treated at IC50 concentration for 6 h
Description: as §1, §2, §3, §4

[7] = primary screen, 2 µM receptor, 100 nM probe 1, 30 min, 25°C, read-out: IC50 vs AdipoR1 (µM) Primary screen
[8] = validation, 2 µM receptor, 100 nM probe 1, 30 min, 25°C, read-out: IC50 vs AdipoR1 (µM) Validated
[9] = primary screen, 2 µM receptor, 100 nM probe 1, 30 min, 25°C, read-out: IC50 vs AdipoR2 (µM) Primary screen
[10] = validation, 2 µM receptor, 100 nM probe 1, 30 min, 25°C, read-out: IC50 vs AdipoR2 (µM) Validated

Row | Molecule | Effect on AMPK phosphorylation [1] | IC50 [2, 7] | IC50 [2, 8] | IC50 ([3]; MDA-MB-231, 72 h) | IC50 ([4]; MCF7, 72 h) | IC50 [5, 9] | IC50 [5, 10] | Effect on PPARα phosphorylation level [6] | also measured
1 | COc1cc(C[C@H]2C(=O)OC[C@@H]2Cc2ccc(OC)c(OC)c2)ccc1O [Compound 2, (-)-Arctigenin] | elevated | 2.6 µM | 2.2 ± 0.8 µM | 4.5 ± 0.4 µM | > 10 µM | > 5 µM | > 5 µM | inhibited | 
2 | CCC[C@H](NC(=O)[C@@H]1CCCN1C(=O)[C@@H](NC(=O)[C@H](N)CC(N)=O)[C@@H](C)CC)C(=O)N[C@@H](CC(C)C)C(=O)N[C@@H](Cc1ccc(O)cc1)C(=O)N[C@H](CO)C(=O)N[C@@H](Cc1ccccc1)C(=O)N[C@@H](C)C(=O)N[C@H](CO)C(N)=O [Peptide 3, H-DAsn-Ile-Pro-Nva-Leu-Tyr-DSer-Phe-Ala-DSer-NH2, reference compound] (H-[dN]IP[Nva]LY[dS]FA[dS]-NH2) |  |  |  |  |  |  |  |  | IC50 ([5]; positive control validation, titrated against probe 1 – AdipoR2 mixture, read-out: IC50 against AdipoR2, competition with probe 1): 2.46 ± 0.25 µM
3 | O=c1cc(-c2ccccc2)oc2cc(O)cc(O)c12 [Compound 8, Chrysin] |  | > 5 µM | > 5 µM |  |  |  |  |  | IC50 ([5]; read-out: IC50 vs AdipoR2 (µM) Primary screen, primary screen, 2 µM receptor, 100 nM probe 1, 30 min, 25°C): 4.9 µM; IC50 ([5]; read-out: IC50 vs AdipoR2 (µM) Validated, validation, 2 µM receptor, 100 nM probe 1, 30 min, 25°C): > 5 µM; IC50 vs AdipoR2 (µM) Validated ([5]; validation, 2 µM receptor, 100 nM probe 1, 30 min, 25°C): failed in the validation
4 | O=C1c2c(O)cc(O)cc2O[C@H](c2ccc(O)c(O)c2)[C@H]1O [Compound 6, Taxifoliol] | decreased |  |  |  |  |  |  | increased | IC50 ([3]; MDA-MB-231, 72 h, 20 µM to 1.2 nM): > 10 µM; IC50 ([4]; MCF7, 72 h, 20 µM to 1.2 nM): 4.4 ± 0.5 µM
5 | COc1cc(/C=C/CO)cc(OC)c1O[C@@H]1O[C@H](CO)[C@@H](O)[C@H](O)[C@H]1O [Compound 5, Syringin] | decreased |  |  | > 10 µM | 6.8 ± 0.8 µM | 4.6 µM | 4.5 ± 0.5 µM | increased | IC50 [2]: > 5 µM; IC50 ([2]; read-out: IC50 vs AdipoR1 (µM) Validated, validation, 2 µM receptor, 100 nM probe 1, 30 min, 25°C): > 5 µM
6 | B1 |  |  |  |  |  |  |  |  | IC50 ([2]; positive control validation, titrated against probe 1 – AdipoR1 mixture, read-out: IC50 against AdipoR1, competition with probe 1): 3.4 ± 0.7 µM
